Two compounds from patent US9868724B2, “Compounds” (GLAXOSMITHKLINE INTELLECTUAL PROPERTY DEVELOPMENT LIMITED, priority 2014, dated 2018) can be followed below.

In experiment [1] the target is T1, RORγ (Homo sapiens, UniProt P51449).
T1 construct: expressed in transfected cells
T1 sequence (P51449 1-497 isoform P51449-2): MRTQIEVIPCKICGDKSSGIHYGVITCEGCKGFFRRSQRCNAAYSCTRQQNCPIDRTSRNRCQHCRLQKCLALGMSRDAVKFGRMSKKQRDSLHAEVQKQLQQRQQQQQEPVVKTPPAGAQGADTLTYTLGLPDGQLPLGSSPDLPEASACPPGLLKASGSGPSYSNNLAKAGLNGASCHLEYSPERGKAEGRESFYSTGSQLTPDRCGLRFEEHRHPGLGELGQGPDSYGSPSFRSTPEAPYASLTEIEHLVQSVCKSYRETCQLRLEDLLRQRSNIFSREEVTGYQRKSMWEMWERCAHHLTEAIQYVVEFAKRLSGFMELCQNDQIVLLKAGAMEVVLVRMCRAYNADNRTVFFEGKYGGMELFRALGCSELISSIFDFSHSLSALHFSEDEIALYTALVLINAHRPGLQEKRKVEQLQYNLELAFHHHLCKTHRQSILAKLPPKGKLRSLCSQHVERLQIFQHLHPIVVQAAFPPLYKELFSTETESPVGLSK
The experiment can be described thus: Jurkat Cell Luciferase Assay. As to conditions: mean pIC50 of multiple test results if tested more than once; Jurkat cells, human IL17 promoter luciferase reporter, RORγt overexpression. It counts as cell-based. The text has this: RORγ is known to bind to a CNS (conserved non-coding sequences) enhancer element in the IL17 promoter. In this assay, RORγ activity is indirectly assessed using a luciferase reporter construct which contains the human IL17 promoter having the RORγ-specific CNS enhancer element. Inhibition of RORγ activity by a compound will result in a decrease in luciferase activity of Jurkat cells transfected with the reporter construct.
For the luciferase reporter plasmid, the 3 Kb human IL17 promoter containing the RORγ-specific CNS enhancer element was PCR amplified from human genomic DNA and cloned into a pGL4-Luc2/hygro reporter plasmid sequentially as XhoI-HindIII (1.1 Kb) and KpnI-XhoI (1.9 Kb) fragments. For the 1.1 Kb fragment, PCR was used to amplify human IL17 proximal promoter region from genomic DNA of 293T cells using primers as follows: forward primer, 5′-[…]-3′ (XhoI site is underlined) and reverse primer, 5′-[…]-3′ (HindIII site is underlined). The 1.1 kb DNA bands were excised, purified, and inserted into pMD19-T Simple Vector (Takara). […]
Compounds were dissolved in DMSO at three concentrations, 10 mM, 400 uM and 16 uM, and were dispensed into 384-wells assay plate at 40 nl, 12.5 nl, 5 nl respectively. The volume was adjusted with pure DMSO to a give a final uniform volume of 40 nl Jurkat cells described above were counted and centrifuged. […]
On the technique in general: In a reporter assay the amount or activity of a reporter protein is the signal.

In experiment [2] the target is T2, RORγ ligand binding domain (RORγ-LBD) (Homo sapiens, UniProt P51449).
T2 construct: modified polyhistidine tag MKKHHHHHHLVPRGS (N); made in house; host or cells: E. coli BL21(DE3)
T2 sequence (P51449 263-518): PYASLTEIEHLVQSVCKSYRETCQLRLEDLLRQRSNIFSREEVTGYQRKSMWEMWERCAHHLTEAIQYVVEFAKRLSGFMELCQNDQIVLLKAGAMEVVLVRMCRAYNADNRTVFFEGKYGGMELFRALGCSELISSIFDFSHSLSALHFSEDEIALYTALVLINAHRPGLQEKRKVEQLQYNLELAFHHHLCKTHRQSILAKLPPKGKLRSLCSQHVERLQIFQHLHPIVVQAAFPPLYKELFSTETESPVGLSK
The experiment can be described thus: Dual Fluorescence Energy Transfer (FRET) Assay. It counts as biochemical. As to conditions: mean pIC50 of multiple test results if tested more than once; RORγ-LBD/SRC1(2) peptide interaction. The text has this: This assay is based on the knowledge that nuclear receptors interact with cofactors (transcription factors) in a ligand dependent manner. RORγ is a typical nuclear receptor in that it has an AF2 domain in the ligand binding domain (LBD) which interacts with co-activators. The sites of interaction have been mapped to the LXXLL motifs in the co-activator SRC1(2) sequences. Short peptide sequences containing the LXXLL motif mimic the behavior of full-length co-activator.
The assay measures ligand-mediated interaction of the co-activator peptide with the purified bacterial-expressed RORγ ligand binding domain (RORγ-LBD) to indirectly assess ligand binding. RORγ has a basal level of interaction with the co-activator SRC1(2) in the absence of ligand, thus it is possible to find ligands that inhibit or enhance the RORγ/SRC1(2) interaction.
Human RORγ Ligand Binding Domain (RORγ-LBD) was expressed in E. coli strain BL21(DE3) as an amino-terminal polyhistidine tagged fusion protein. DNA encoding this recombinant protein was sub-cloned into a modified pET21a expression vector (Novagen). […]
Approximately 50 g E. coli cell pellet was resuspended in 300 mL of lysis buffer (30 mM imidazole pH 7.0 and 150 mM NaCl). […] After washing to baseline absorbance with the equilibration buffer, the column was developed with a gradient from 30 to 500 mM imidazole pH 7.0. […]

Experiment [3] has as its target T3, RORγ-LBD (Homo sapiens, UniProt P51449).
T3 construct: adding an appropriate amount of biotinylated RORγ-LBD and APC-labeled streptavidin
T3 sequence (P51449 269-508 limits assumed): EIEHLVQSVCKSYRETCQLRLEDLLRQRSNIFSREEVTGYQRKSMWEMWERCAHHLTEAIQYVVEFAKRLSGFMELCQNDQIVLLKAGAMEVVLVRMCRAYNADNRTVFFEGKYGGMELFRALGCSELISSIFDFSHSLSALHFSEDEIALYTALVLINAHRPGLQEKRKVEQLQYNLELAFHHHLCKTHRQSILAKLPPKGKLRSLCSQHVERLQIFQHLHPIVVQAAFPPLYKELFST
Nature of the experiment: Fluorescence Energy Transfer (FRET) Assay. The experiment is classed as biochemical. As to conditions: mean pIC50 of multiple test results if tested more than once; SRC1/RORγ-LBD with 0.2 μM surrogate agonist. On the procedure:
The assays were performed in an assay buffer consisting of 50 mM NaF, 50 mM 3-(N-morpholino)propanesulfonic acid, pH 7.5, 50 μM 3-[(3-cholamidopropyl)dimethylammonio]-propanesulfonate, 0.1 mg/mL bovine serum albumin, and 10 mM dithiothreitol in 384-well plates (Greiner 784076, Longwood, Fla.). The total volume was 10 μL/well. The europium-labeled SRC1 solution was prepared by adding an appropriate amount of biotinylated SRC and europium labeled streptavidin (PerkinElmer Life and Analytical Sciences, Waltham, Mass.) into assay buffer, with final concentrations of 27 and 3.3 nM, respectively. The allophycocyanin (APC)-labeled-LBD solution was prepared by adding an appropriate amount of biotinylated RORγ-LBD and APC-labeled streptavidin (CR130-100; PerkinElmer Life and Analytical Sciences) at a final concentration of 33 nM each. After 15 min of incubation at room temperature, a 20-fold excess of biotin was added to block the remaining free streptavidin. […] The plates were incubated for 1 h at room temperature and then read on ViewLux (PerkinElmer Life and Analytical Sciences) in LANCE mode configured for europeum-APC labels. Data were collected and analyzed by Activitybase.

Experiment [4] has as its system Mouse CD4+ cells. The experiment can be described thus: Th17 Cell Differentiation Assay. As to conditions: mean pIC50 of multiple test results if tested more than once, IL-17 ELISA. The experiment is classed as cell-based. The procedure:
Mouse CD4+ cells were purified using the CD4+ T Cell Isolation II Kit according to manufacturer's instructions (Miltenyi Biotec). 96 well plates were pre-coated with anti-mCD3 antibody. Un-coated wells were used as controls. CD4+ Cells were resuspended in RPMI 1640 complete medium and were added to the 96-well plates. Cytokine cocktail and the compound were then added to the wells. Antibodies and cytokines (all from R&D Systems) used in the assay were selected from the following: anti-mCD3; anti-mCD28; anti-mIFNγ; anti-mIL4; mIL-6; mIL-23; mIL-1β; hTGF-β1. The culture was incubated at 37° C. for 3 days and supernatants were collected for ELISA. The IL-17 ELISAs were performed according to manufacturer's instructions (R&D Systems). The results were analyzed using Prism software with non-linear regression to determine pIC50.
The Th17 differentiation culture described above was maintained for 5 days and cells were analyzed by IL-17 and IFN-γ intracellular staining according to manufacturer's instructions (BD Biosciences).

For `Cc1ncc(C(=O)Nc2cc(Cl)cc(CN3CCN(C(=O)[C@H]4CCOC4)[C@@H](C)C3)c2C)cc1F` [Example 57, N-(5-chloro-2-methyl-3-(((S)-3-methyl-4-((S)-tetrahydrofuran-3-carbonyl)piperazin-1-yl)methyl)phenyl)-5-fluoro-6-methylnicotinamide], the IC50 is approximately 25.1 nM in experiment [1], approximately 200 nM in experiment [2], approximately 126 nM in experiment [3] and approximately 81.3 nM in experiment [4].
In the same order, the values of `Cc1ncc(C(=O)Nc2cc(Cl)cc(CN3CCN(C(=O)[C@@H]4CCOC4)[C@@H](C)C3)c2C)cc1C#N` (single isomer, unassigned) [Example 91] are approximately 12.6 nM, approximately 794 nM, approximately 251 nM and approximately 17.4 nM.

In general, IC50 refers to the midpoint of a concentration-inhibition curve. A low value points to inhibition by little substance.
